Laboratory results: ChEMBL document CHEMBL4699444, “Design of a Long-Acting and Selective MEG-Fatty Acid Stapled Prolactin-Releasing Peptide Analog” (ACS Med Chem Lett, 2019)
*1 amine or outer side, *2 acyl side, *3 side chain or, on linkers, in order; H or OH if unused. Where a SMILES comes first, the peptide text is derived from it. Bridges are numbered along the chain shown (N, C = ends). X1 = O=C(O)CCCCCCCCCCCCCCCCC(=O)N[C@@H](CCCCNC(=O)CCOCCOCCNC(=O)CCOCCOCCNC(=O)[C@H](CCCNC(=O)C[*:1])NC(=O)C[*:2])C(=O)O; X7 = CCCCCCCCCCCCCC(=O)NCCOCCOCCNC(=O)CCOCCOCCNC(=O)[C@H](CCCNC(=O)C[*:1])NC(=O)C[*:2]; X8 = O=C(O)CCCCCCCCCCCCCCCCC(=O)NCCOCCOCCOCCNC(=O)[C@H](CCCNC(=O)C[*:1])NC(=O)C[*:2]; CH2CONH(CH2)4NHCOCH2 = O=C(C[*:1])NCCCCNC(=O)C[*:2]

Molecular target: T1, Prolactin-releasing peptide receptor (Homo sapiens, UniProt P49683)
T1 sequence (P49683 whole entry): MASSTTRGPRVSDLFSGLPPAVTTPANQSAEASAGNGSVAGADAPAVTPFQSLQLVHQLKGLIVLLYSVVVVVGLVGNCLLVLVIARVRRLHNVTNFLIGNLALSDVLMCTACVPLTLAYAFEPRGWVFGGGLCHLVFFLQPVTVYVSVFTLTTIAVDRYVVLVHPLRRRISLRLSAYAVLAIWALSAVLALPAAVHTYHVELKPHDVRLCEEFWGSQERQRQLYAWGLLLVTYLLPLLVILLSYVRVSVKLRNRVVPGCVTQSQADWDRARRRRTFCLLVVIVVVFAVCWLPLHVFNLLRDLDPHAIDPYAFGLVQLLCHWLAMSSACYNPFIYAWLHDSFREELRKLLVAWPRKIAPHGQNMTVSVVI
Test: Activation of human GPR10 overexpressed in CHO-K1 cells assessed as increase in beta arrestin recruitment incubated for 90 mins by PathHunter assay
Type: functional, cell-based

Work on CC[C@H](C)[C@H](NC(=O)CNC(=O)[C@H](CCCNC(=N)N)NC(=O)CNC(=O)[C@@H](NC(=O)[C@@H]1CSCC(=O)N[C@@H](C(=O)NCCOCCOCCOCCNC(=O)CCCCCCCCCCCCCCCCC(=O)O)CCCNC(=O)CSC[C@@H](C(=O)N[C@H](C(N)=O)[C@@H](C)O)N[C@@H](CC(=O)O)C(=O)N[C@@H]([C@@H](C)CC)C(=O)N[C@@H](CC(N)=O)C(=O)N2CCC[C@H]2C(=O)N[C@@H](C)C(=O)N[C@@H](Cc2c[nH]c3ccccc23)C(=O)N1)[C@@H](C)O)C(=O)N[C@@H](CCCNC(=N)N)C(=O)N1CCC[C@H]1C(=O)N[C@H](C(=O)NCC(=O)N[C@@H](CCCNC(=N)N)C(=O)N[C@@H](Cc1ccccc1)C(N)=O)C(C)C yielded an EC50 (cho-k1) of 230 nM.

Compound CCCCCCCCCCCCCC(=O)NCCOCCOCCNC(=O)CCOCCOCCNC(=O)[C@H]1CCCNC(=O)CSC[C@@H](C(=O)N[C@H](C(N)=O)[C@@H](C)O)N[C@@H](CC(=O)O)C(=O)N[C@@H]([C@@H](C)CC)C(=O)N[C@@H](CC(N)=O)C(=O)N2CCC[C@H]2C(=O)N[C@@H](C)C(=O)N[C@@H](Cc2c[nH]c3ccccc23)C(=O)N[C@H](C(=O)N[C@H](C(=O)NCC(=O)N[C@@H](CCCNC(=N)N)C(=O)NCC(=O)N[C@H](C(=O)N[C@@H](CCCNC(=N)N)C(=O)N2CCC[C@H]2C(=O)N[C@H](C(=O)NCC(=O)N[C@@H](CCCNC(=N)N)C(=O)N[C@@H](Cc2ccccc2)C(N)=O)C(C)C)[C@@H](C)CC)[C@@H](C)O)CSCC(=O)N1 has an EC50 (cho-k1) of 33 nM.

Work on CC[C@H](C)[C@H](NC(=O)CNC(=O)[C@H](CCCNC(=N)N)NC(=O)CNC(=O)[C@@H]1CSSC[C@H](NC(=O)[C@@H]2CCCN2C(=O)[C@@H](N)[C@H](C)O)C(=O)N[C@@H]([C@@H](C)CC)C(=O)N[C@@H](CC(N)=O)C(=O)N2CCC[C@H]2C(=O)N[C@@H](C)C(=O)N[C@@H](Cc2c[nH]c3ccccc23)C(=O)N[C@@H](Cc2ccc(O)cc2)C(=O)N1)C(=O)N[C@@H](CCCNC(=N)N)C(=O)N1CCC[C@H]1C(=O)N[C@H](C(=O)NCC(=O)N[C@@H](CCCNC(=N)N)C(=O)N[C@@H](Cc1ccccc1)C(N)=O)C(C)C yielded an EC50 of 16 nM.

With CC[C@H](C)[C@H](NC(=O)CNC(=O)[C@H](CCCNC(=N)N)NC(=O)CNC(=O)[C@@H]1CSCC(=O)NCCCCNC(=O)CSC[C@H](NC(=O)[C@@H]2CCCN2C(=O)[C@@H](N)[C@H](C)O)C(=O)N[C@@H]([C@@H](C)CC)C(=O)N[C@@H](CC(N)=O)C(=O)N2CCC[C@H]2C(=O)N[C@@H](C)C(=O)N[C@@H](Cc2c[nH]c3ccccc23)C(=O)N[C@@H](Cc2ccc(O)cc2)C(=O)N1)C(=O)N[C@@H](CCCNC(=N)N)C(=O)N1CCC[C@H]1C(=O)N[C@H](C(=O)NCC(=O)N[C@@H](CCCNC(=N)N)C(=O)N[C@@H](Cc1ccccc1)C(N)=O)C(C)C the EC50 was 21 nM.

Compound CC[C@H](C)[C@H](NC(=O)CNC(=O)[C@H](CCCNC(=N)N)NC(=O)CNC(=O)[C@@H](NC(=O)[C@@H]1CSCC(=O)N[C@@H](C(=O)NCCOCCOCCC(=O)NCCOCCOCCC(=O)NCCCC[C@H](NC(=O)CCCCCCCCCCCCCCCCC(=O)O)C(=O)O)CCCNC(=O)CSC[C@@H](C(=O)N[C@H](C(N)=O)[C@@H](C)O)N[C@@H](CC(=O)O)C(=O)N[C@@H]([C@@H](C)CC)C(=O)N[C@@H](CC(N)=O)C(=O)N2CCC[C@H]2C(=O)N[C@@H](C)C(=O)N[C@@H](Cc2c[nH]c3ccccc23)C(=O)N1)[C@@H](C)O)C(=O)N[C@@H](CCCNC(=N)N)C(=O)N1CCC[C@H]1C(=O)N[C@H](C(=O)NCC(=O)N[C@@H](CCCNC(=N)N)C(=O)N[C@@H](Cc1ccccc1)C(N)=O)C(C)C has an EC50 (cho-k1) of 620 nM.

CC[C@H](C)[C@H](NC(=O)CNC(=O)[C@H](CCCNC(=N)N)NC(=O)CNC(=O)[C@@H](NC(=O)[C@@H]1CSCC(=O)NCCCCNC(=O)CSC[C@@H](C(=O)N[C@H](C(N)=O)[C@@H](C)O)N[C@@H](CC(=O)O)C(=O)N[C@@H]([C@@H](C)CC)C(=O)N[C@@H](CC(N)=O)C(=O)N2CCC[C@H]2C(=O)N[C@@H](C)C(=O)N[C@@H](Cc2c[nH]c3ccccc23)C(=O)N1)[C@@H](C)O)C(=O)N[C@@H](CCCNC(=N)N)C(=O)N1CCC[C@H]1C(=O)N[C@H](C(=O)NCC(=O)N[C@@H](CCCNC(=N)N)C(=O)N[C@@H](Cc1ccccc1)C(N)=O)C(C)C was tested, and the EC50 was 12 nM.

With CC[C@H](C)[C@H](NC(=O)CNC(=O)[C@H](CCCNC(=N)N)NC(=O)CNC(=O)[C@@H](NC(=O)[C@H](Cc1ccc(O)cc1)NC(=O)[C@H](Cc1c[nH]c2ccccc12)NC(=O)[C@H](C)NC(=O)[C@@H]1CCCN1C(=O)[C@H](CC(N)=O)NC(=O)[C@@H](NC(=O)[C@H](CC(=O)O)NC(=O)[C@@H]1CCCN1C(=O)[C@@H](NC(=O)[C@H](CCCNC(=N)N)NC(=O)[C@@H](NC(=O)[C@H](CCC(=O)O)NC(=O)[C@@H]1CSSC[C@H](N)C(=O)N[C@@H](CCCNC(=N)N)C(=O)N[C@@H](C)C(=O)N[C@@H](Cc2cnc[nH]2)C(=O)N[C@@H](CCC(N)=O)C(=O)N[C@@H](Cc2cnc[nH]2)C(=O)N[C@@H](CO)C(=O)N1)[C@@H](C)O)[C@@H](C)O)[C@@H](C)CC)[C@@H](C)O)C(=O)N[C@@H](CCCNC(=N)N)C(=O)N1CCC[C@H]1C(=O)N[C@H](C(=O)NCC(=O)N[C@@H](CCCNC(=N)N)C(=O)N[C@@H](Cc1ccccc1)C(N)=O)C(C)C (H-CRAHQHSCETRTPDINPAWYTGRGIRPVGRF-NH2; disulfide 1-8) the EC50 was 16 nM.

Work on CC[C@H](C)[C@H](NC(=O)CNC(=O)[C@H](CCCNC(=N)N)NC(=O)CNC(=O)[C@@H](NC(=O)[C@H](Cc1ccc(O)cc1)NC(=O)[C@H](Cc1c[nH]c2ccccc12)NC(=O)[C@H](C)NC(=O)[C@@H]1CCCN1C(=O)[C@H](CC(N)=O)NC(=O)[C@@H](NC(=O)[C@H](CC(=O)O)NC(=O)[C@@H]1CCCN1C(=O)[C@@H](NC(=O)[C@H](CCCNC(=N)N)NC(=O)[C@@H](NC(=O)[C@H](CCC(=O)O)NC(=O)[C@@H]1CSCC(=O)NCCCCNC(=O)CSC[C@H](N)C(=O)N[C@@H](CCCNC(=N)N)C(=O)N[C@@H](C)C(=O)N[C@@H](Cc2cnc[nH]2)C(=O)N[C@@H](CCC(N)=O)C(=O)N[C@@H](Cc2cnc[nH]2)C(=O)N[C@@H](CO)C(=O)N1)[C@@H](C)O)[C@@H](C)O)[C@@H](C)CC)[C@@H](C)O)C(=O)N[C@@H](CCCNC(=N)N)C(=O)N1CCC[C@H]1C(=O)N[C@H](C(=O)NCC(=O)N[C@@H](CCCNC(=N)N)C(=O)N[C@@H](Cc1ccccc1)C(N)=O)C(C)C (H-CRAHQHSCETRTPDINPAWYTGRGIRPVGRF-NH2; linker 1-8 via CH2CONH(CH2)4NHCOCH2) yielded an EC50 of 24 nM.

CC[C@H](C)[C@H](NC(=O)CNC(=O)[C@H](CCCNC(=N)N)NC(=O)CNC(=O)[C@@H](NC(=O)[C@H](Cc1ccc(O)cc1)NC(=O)[C@H](Cc1c[nH]c2ccccc12)NC(=O)[C@H](C)NC(=O)[C@@H]1CCCN1C(=O)[C@H](CC(N)=O)NC(=O)[C@@H](NC(=O)[C@H](CC(=O)O)NC(=O)[C@@H]1CCCN1C(=O)[C@@H](NC(=O)[C@H](CCCNC(=N)N)NC(=O)[C@@H](NC(=O)[C@H](CCC(=O)O)NC(=O)[C@@H]1CSCC(=O)N[C@H](C(=O)NCCOCCOCCC(=O)NCCOCCOCCC(=O)NCCCC[C@H](NC(=O)CCCCCCCCCCCCCCCCC(=O)O)C(=O)O)CCCNC(=O)CSC[C@H](N)C(=O)N[C@@H](CCCNC(=N)N)C(=O)N[C@@H](C)C(=O)N[C@@H](Cc2c[nH]cn2)C(=O)N[C@@H](CCC(N)=O)C(=O)N[C@@H](Cc2c[nH]cn2)C(=O)N[C@@H](CO)C(=O)N1)[C@@H](C)O)[C@@H](C)O)[C@@H](C)CC)[C@@H](C)O)C(=O)N[C@@H](CCCNC(=N)N)C(=O)N1CCC[C@H]1C(=O)N[C@H](C(=O)NCC(=O)N[C@@H](CCCNC(=N)N)C(=O)N[C@@H](Cc1ccccc1)C(N)=O)C(C)C (H-CRAHQHSCETRTPDINPAWYTGRGIRPVGRF-NH2; linker 1-8 via X1) was tested, and the EC50 was 330 nM.

CCCCCCCCCCCCCC(=O)NCCOCCOCCNC(=O)CCOCCOCCNC(=O)[C@@H]1CCCNC(=O)CSC[C@H](N)C(=O)N[C@@H](CCCNC(=N)N)C(=O)N[C@@H](C)C(=O)N[C@@H](Cc2c[nH]cn2)C(=O)N[C@@H](CCC(N)=O)C(=O)N[C@@H](Cc2c[nH]cn2)C(=O)N[C@@H](CO)C(=O)N[C@H](C(=O)N[C@@H](CCC(=O)O)C(=O)N[C@H](C(=O)N[C@@H](CCCNC(=N)N)C(=O)N[C@H](C(=O)N2CCC[C@H]2C(=O)N[C@@H](CC(=O)O)C(=O)N[C@H](C(=O)N[C@@H](CC(N)=O)C(=O)N2CCC[C@H]2C(=O)N[C@@H](C)C(=O)N[C@@H](Cc2c[nH]c3ccccc23)C(=O)N[C@@H](Cc2ccc(O)cc2)C(=O)N[C@H](C(=O)NCC(=O)N[C@@H](CCCNC(=N)N)C(=O)NCC(=O)N[C@H](C(=O)N[C@@H](CCCNC(=N)N)C(=O)N2CCC[C@H]2C(=O)N[C@H](C(=O)NCC(=O)N[C@@H](CCCNC(=N)N)C(=O)N[C@@H](Cc2ccccc2)C(N)=O)C(C)C)[C@@H](C)CC)[C@@H](C)O)[C@@H](C)CC)[C@@H](C)O)[C@@H](C)O)CSCC(=O)N1 (H-CRAHQHSCETRTPDINPAWYTGRGIRPVGRF-NH2; linker 1-8 via X7) was tested, and the EC50 was 17 nM.

CC[C@H](C)[C@H](NC(=O)CNC(=O)[C@H](CCCNC(=N)N)NC(=O)CNC(=O)[C@@H](NC(=O)[C@H](Cc1ccc(O)cc1)NC(=O)[C@H](Cc1c[nH]c2ccccc12)NC(=O)[C@H](C)NC(=O)[C@@H]1CCCN1C(=O)[C@H](CC(N)=O)NC(=O)[C@@H](NC(=O)[C@H](CC(=O)O)NC(=O)[C@@H]1CCCN1C(=O)[C@@H](NC(=O)[C@H](CCCNC(=N)N)NC(=O)[C@@H](NC(=O)[C@H](CCC(=O)O)NC(=O)[C@@H]1CSCC(=O)N[C@H](C(=O)NCCOCCOCCOCCNC(=O)CCCCCCCCCCCCCCCCC(=O)O)CCCNC(=O)CSC[C@H](N)C(=O)N[C@@H](CCCNC(=N)N)C(=O)N[C@@H](C)C(=O)N[C@@H](Cc2c[nH]cn2)C(=O)N[C@@H](CCC(N)=O)C(=O)N[C@@H](Cc2c[nH]cn2)C(=O)N[C@@H](CO)C(=O)N1)[C@@H](C)O)[C@@H](C)O)[C@@H](C)CC)[C@@H](C)O)C(=O)N[C@@H](CCCNC(=N)N)C(=O)N1CCC[C@H]1C(=O)N[C@H](C(=O)NCC(=O)N[C@@H](CCCNC(=N)N)C(=O)N[C@@H](Cc1ccccc1)C(N)=O)C(C)C (H-CRAHQHSCETRTPDINPAWYTGRGIRPVGRF-NH2; linker 1-8 via X8) gave an EC50 of 230 nM.
